Assay results reported in PubChem BioAssay (NCI).
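Assay format: 96-well plates, 48-hour exposure. TGI denotes the concentration required for complete inhibition of growth.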

What was measured:
Experiment in all cases: NCI tumour cell line growth inhibition, 48 h
SW-620 colon = tested on: SW-620 colon
SNB-75 CNS = tested on: SNB-75 CNS
SK-MEL-5 melanoma = tested on: SK-MEL-5 melanoma
CCRF-CEM leukemia = tested on: CCRF-CEM leukemia
DU-145 prostate = tested on: DU-145 prostate
NCI-H226 lung = tested on: NCI-H226 lung
TK-10 renal = tested on: TK-10 renal
SF-295 CNS = tested on: SF-295 CNS
HCT-116 colon = tested on: HCT-116 colon
HOP-62 NSCLC = tested on: HOP-62 NSCLC
NCI/ADR-RES ovarian = tested on: NCI/ADR-RES ovarian
HL-60(TB) leukemia = tested on: HL-60(TB) leukemia
UACC-257 melanoma = tested on: UACC-257 melanoma
HOP-92 NSCLC = tested on: HOP-92 NSCLC
SNB-19 CNS = tested on: SNB-19 CNS
M14 melanoma = tested on: M14 melanoma
OVCAR-8 ovarian = tested on: OVCAR-8 ovarian
SF-539 CNS = tested on: SF-539 CNS
OVCAR-3 ovarian = tested on: OVCAR-3 ovarian
COLO 205 colon = tested on: COLO 205 colon
OVCAR-4 ovarian = tested on: OVCAR-4 ovarian
HT29 colon = tested on: HT29 colon
SK-OV-3 ovarian = tested on: SK-OV-3 ovarian
SF-268 CNS = tested on: SF-268 CNS
CAKI-1 renal = tested on: CAKI-1 renal
MALME-3M melanoma = tested on: MALME-3M melanoma
EKVX NSCLC = tested on: EKVX NSCLC
KM12 colon = tested on: KM12 colon
A549 NSCLC = tested on: A549 NSCLC
NCI-H23 lung = tested on: NCI-H23 lung
SR leukemia = tested on: SR leukemia
SK-MEL-28 melanoma = tested on: SK-MEL-28 melanoma
HCT-15 colon = tested on: HCT-15 colon
MDA-N = tested on: MDA-N
RPMI-8226 leukemia = tested on: RPMI-8226 leukemia
MDA-MB-435 = tested on: MDA-MB-435
U251 CNS = tested on: U251 CNS
SK-MEL-2 melanoma = tested on: SK-MEL-2 melanoma
HS 578T breast = tested on: HS 578T breast
RXF 393 renal = tested on: RXF 393 renal
BT-549 breast = tested on: BT-549 breast
NCI-H460 lung = tested on: NCI-H460 lung
786-0 renal = tested on: 786-0 renal
IGROV1 ovarian = tested on: IGROV1 ovarian
LOX IMVI melanoma = tested on: LOX IMVI melanoma
T-47D breast = tested on: T-47D breast
NCI-H522 lung = tested on: NCI-H522 lung
ACHN renal = tested on: ACHN renal
MCF7 breast = tested on: MCF7 breast
K-562 leukemia = tested on: K-562 leukemia
MDA-MB-231 breast = tested on: MDA-MB-231 breast
MOLT-4 leukemia = tested on: MOLT-4 leukemia
PC-3 prostate = tested on: PC-3 prostate
OVCAR-5 ovarian = tested on: OVCAR-5 ovarian
UO-31 renal = tested on: UO-31 renal
UACC-62 melanoma = tested on: UACC-62 melanoma
SN12C renal = tested on: SN12C renal
A498 renal = tested on: A498 renal
HCC-2998 colon = tested on: HCC-2998 colon

In the case of CNCCC=C1c2ccccc2CCc2ccccc21, the TGI (SW-620 colon) is reported as 34.6 µM, the TGI (SNB-75 CNS) is reported as 21.6 µM and the TGI (SK-MEL-5 melanoma) is reported as 25.5 µM. The TGI (CCRF-CEM leukemia) was 29.3 µM, the TGI (DU-145 prostate) was 28.8 µM and the TGI (NCI-H226 lung) was 38 µM. It also gave a TGI (TK-10 renal) of 28 µM, a TGI (SF-295 CNS) of 27.8 µM and a TGI (HCT-116 colon) of 27.8 µM. It also gave a TGI (HOP-62 NSCLC) of 28.2 µM, a TGI (NCI/ADR-RES ovarian) of 30.4 µM and a TGI (HL-60(TB) leukemia) of 31.7 µM. It also gave a TGI (UACC-257 melanoma) of 19.9 µM, a TGI (HOP-92 NSCLC) of 28.8 µM and a TGI (SNB-19 CNS) of 31.6 µM. The TGI (M14 melanoma) was 14.7 µM, the TGI (OVCAR-8 ovarian) was 31.7 µM and the TGI (SF-539 CNS) was 44.1 µM. It also gave a TGI (OVCAR-3 ovarian) of 23.6 µM, a TGI (COLO 205 colon) of 21 µM and a TGI (OVCAR-4 ovarian) of 28.6 µM. For the same compound, the TGI (HT29 colon) was 16.1 µM, the TGI (SK-OV-3 ovarian) was 25.2 µM and the TGI (SF-268 CNS) was 29.6 µM. The TGI (CAKI-1 renal) was 27.7 µM, the TGI (MALME-3M melanoma) was 30.3 µM and the TGI (EKVX NSCLC) was 29.2 µM. The TGI (KM12 colon) was 29.6 µM, the TGI (A549 NSCLC) was 32.1 µM and the TGI (NCI-H23 lung) was 29.9 µM. The TGI (SR leukemia) was 32.7 µM, the TGI (SK-MEL-28 melanoma) was 27 µM and the TGI (HCT-15 colon) was 32.3 µM. It also gave a TGI (MDA-N) of 29 µM, a TGI (RPMI-8226 leukemia) of 32.8 µM and a TGI (MDA-MB-435) of 28.2 µM. The TGI (U251 CNS) was 27.6 µM, the TGI (SK-MEL-2 melanoma) was 29.2 µM and the TGI (HS 578T breast) was 51.1 µM. The TGI (RXF 393 renal) was 22.6 µM, the TGI (BT-549 breast) was 29.1 µM and the TGI (NCI-H460 lung) was 28.5 µM. For the same compound, the TGI (786-0 renal) was 27.7 µM, the TGI (IGROV1 ovarian) was 30.7 µM and the TGI (LOX IMVI melanoma) was 26.7 µM. The TGI (T-47D breast) was 23.5 µM, the TGI (NCI-H522 lung) was 29.2 µM and the TGI (ACHN renal) was 30.2 µM. For the same compound, the TGI (MCF7 breast) was 30.4 µM, the TGI (K-562 leukemia) was 30.5 µM and the TGI (MDA-MB-231 breast) was > 51.9 µM. For the same compound, the TGI (MOLT-4 leukemia) was 29.4 µM, the TGI (PC-3 prostate) was 27.4 µM and the TGI (OVCAR-5 ovarian) was 30.2 µM. For the same compound, the TGI (UO-31 renal) was 18.2 µM, the TGI (UACC-62 melanoma) was 28.3 µM and the TGI (SN12C renal) was 29.2 µM. The TGI (A498 renal) was 28.9 µM.
In the case of CC1=NN=C(N)NC1=CC(Sc1ccc(Cl)cc1)c1c(O)ccc2ccccc12 (centres undefined), the TGI (SW-620 colon) is reported as > 100 µM, the TGI (SNB-75 CNS) is reported as 70.2 µM and the TGI (SK-MEL-5 melanoma) is reported as 21.2 µM. The TGI (CCRF-CEM leukemia) was 31.5 µM, the TGI (DU-145 prostate) was > 84.6 µM and the TGI (NCI-H226 lung) was 14 µM. For the same compound, the TGI (TK-10 renal) was > 100 µM, the TGI (SF-295 CNS) was > 57.7 µM and the TGI (HCC-2998 colon) was 32.2 µM. The TGI (HCT-116 colon) was > 63.2 µM, the TGI (HOP-62 NSCLC) was 57.7 µM and the TGI (NCI/ADR-RES ovarian) was 71.9 µM. For the same compound, the TGI (UACC-257 melanoma) was > 87.1 µM, the TGI (HOP-92 NSCLC) was > 78.5 µM and the TGI (SNB-19 CNS) was > 74.9 µM. It also gave a TGI (M14 melanoma) of 36.2 µM, a TGI (OVCAR-8 ovarian) of 43.6 µM and a TGI (COLO 205 colon) of 36.8 µM. The TGI (OVCAR-4 ovarian) was > 64.7 µM, the TGI (HT29 colon) was 48.4 µM and the TGI (SK-OV-3 ovarian) was 67.4 µM. For the same compound, the TGI (SF-268 CNS) was > 71.1 µM, the TGI (CAKI-1 renal) was > 69.6 µM and the TGI (MALME-3M melanoma) was 20.4 µM. The TGI (EKVX NSCLC) was 69 µM, the TGI (KM12 colon) was 36.9 µM and the TGI (A549 NSCLC) was > 92.9 µM. For the same compound, the TGI (NCI-H23 lung) was 51.6 µM, the TGI (SR leukemia) was > 100 µM and the TGI (SK-MEL-28 melanoma) was > 62.6 µM. The TGI (HCT-15 colon) was > 63.3 µM, the TGI (MDA-N) was > 100 µM and the TGI (RPMI-8226 leukemia) was > 100 µM. The TGI (MDA-MB-435) was > 86.6 µM, the TGI (U251 CNS) was 76.8 µM and the TGI (SK-MEL-2 melanoma) was 23.2 µM. The TGI (HS 578T breast) was 41.3 µM, the TGI (RXF 393 renal) was 20.3 µM and the TGI (BT-549 breast) was > 81.5 µM. For the same compound, the TGI (NCI-H460 lung) was 45.1 µM, the TGI (786-0 renal) was > 65.6 µM and the TGI (IGROV1 ovarian) was 37.3 µM. The TGI (LOX IMVI melanoma) was > 65.2 µM, the TGI (T-47D breast) was 58.9 µM and the TGI (NCI-H522 lung) was 41.8 µM. For the same compound, the TGI (ACHN renal) was 28.1 µM, the TGI (MCF7 breast) was 73.9 µM and the TGI (K-562 leukemia) was > 100 µM. The TGI (MDA-MB-231 breast) was 56.5 µM, the TGI (MOLT-4 leukemia) was > 84.9 µM and the TGI (PC-3 prostate) was 53.4 µM. The TGI (OVCAR-5 ovarian) was > 61.9 µM, the TGI (UO-31 renal) was > 67.6 µM and the TGI (UACC-62 melanoma) was 25.9 µM. The TGI (SN12C renal) was 97.3 µM and the TGI (A498 renal) was 37.5 µM.
